According to ChEMBL document CHEMBL1770065, “Discovery of a clinical candidate from the structurally unique dioxa-bicyclo[3.2.1]octane class of sodium-dependent glucose cotransporter 2 inhibitors” (J Med Chem, 2011):

What was measured:
[1] = Lipophilicity, log D of the compound; assay type: physicochemical; conditions: octanol/water
[2] = Apparent intrinsic clearance in human liver microsomes assessed per mg of protein; assay type: ADME, Microsome
[3] = Apparent intrinsic clearance in human hepatocytes assessed per million of cells; assay type: ADME, cell-based, Liver, Hepatocyte
[4] = Half life in Sprague-Dawley rat at 2 mg/kg, iv; assay type: ADME, organism-based; design: dose 2 mg/kg, route intravenous; conditions: in vivo
[5] = biological target: T1, Sodium/glucose cotransporter 2 (Homo sapiens, UniProt P31639); test: Inhibition of human SGLT2 expressed in CHO cells assessed as inhibition of methyl alpha-D-glucopyranoside uptake after 1 hr; assay type: cell-based
T1 sequence (P31639 whole entry): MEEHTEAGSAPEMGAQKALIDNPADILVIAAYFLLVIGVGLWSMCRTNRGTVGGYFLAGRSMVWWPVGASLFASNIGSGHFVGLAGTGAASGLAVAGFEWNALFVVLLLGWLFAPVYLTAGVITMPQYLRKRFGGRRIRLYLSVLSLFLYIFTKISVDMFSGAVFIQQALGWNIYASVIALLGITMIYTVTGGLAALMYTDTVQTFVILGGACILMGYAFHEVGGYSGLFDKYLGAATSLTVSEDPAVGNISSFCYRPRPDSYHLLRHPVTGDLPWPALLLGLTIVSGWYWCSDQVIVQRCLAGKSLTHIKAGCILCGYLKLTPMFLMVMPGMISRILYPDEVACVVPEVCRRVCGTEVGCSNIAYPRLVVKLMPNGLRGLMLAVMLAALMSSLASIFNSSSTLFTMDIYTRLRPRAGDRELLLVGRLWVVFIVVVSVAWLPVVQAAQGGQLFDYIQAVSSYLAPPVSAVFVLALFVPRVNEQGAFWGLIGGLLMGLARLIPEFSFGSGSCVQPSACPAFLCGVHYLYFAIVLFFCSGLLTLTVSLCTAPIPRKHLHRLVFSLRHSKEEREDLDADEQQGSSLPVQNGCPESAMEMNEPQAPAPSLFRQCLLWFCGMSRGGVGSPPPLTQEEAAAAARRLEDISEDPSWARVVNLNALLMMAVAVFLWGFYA

Rattus norvegicus = test: Hepatic clearance in Sprague-Dawley rat at 2 mg/kg, iv; assay type: ADME, organism-based, Liver; design: dose 2 mg/kg, route intravenous; conditions: in vivo
[6] = Renal clearance in Sprague-Dawley rat at 2 mg/kg, iv; assay type: ADME, organism-based, Kidney; design: dose 2 mg/kg, route intravenous; conditions: in vivo
[7] = biological target: T2, Sodium/glucose cotransporter 1 (Homo sapiens, UniProt P13866); test: Inhibition of human SGLT1 expressed in CHO cells assessed as inhibition of methyl alpha-D-glucopyranoside uptake after 1 hr; assay type: cell-based
T2 sequence (P13866 whole entry): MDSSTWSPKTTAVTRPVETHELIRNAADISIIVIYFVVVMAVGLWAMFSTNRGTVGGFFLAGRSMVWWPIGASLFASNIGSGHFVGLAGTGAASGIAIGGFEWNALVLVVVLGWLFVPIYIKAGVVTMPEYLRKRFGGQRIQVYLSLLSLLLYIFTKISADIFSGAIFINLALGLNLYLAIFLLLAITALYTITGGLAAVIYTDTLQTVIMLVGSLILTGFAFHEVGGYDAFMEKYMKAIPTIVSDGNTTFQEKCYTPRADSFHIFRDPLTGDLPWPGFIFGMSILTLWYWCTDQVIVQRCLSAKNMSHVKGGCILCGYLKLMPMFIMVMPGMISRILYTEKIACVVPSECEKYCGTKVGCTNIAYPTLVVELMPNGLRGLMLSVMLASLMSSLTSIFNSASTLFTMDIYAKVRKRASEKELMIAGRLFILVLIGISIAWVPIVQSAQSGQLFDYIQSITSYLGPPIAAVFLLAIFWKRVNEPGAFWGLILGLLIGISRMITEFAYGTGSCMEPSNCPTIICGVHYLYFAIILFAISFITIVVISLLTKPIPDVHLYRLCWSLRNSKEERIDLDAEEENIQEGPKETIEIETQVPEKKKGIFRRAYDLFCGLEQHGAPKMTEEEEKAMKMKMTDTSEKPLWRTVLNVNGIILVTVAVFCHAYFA

Plasma [8] = test: Fraction unbound in human plasma at 1000 ng/mL by equilibrium dialysis method; assay type: ADME, cell-free
Plasma [9] = test: Fraction unbound in rat plasma at 1000 ng/mL by equilibrium dialysis method; assay type: ADME, cell-free

SMILES | logD [1] | microsomal CLint [2] [µL/min/mg] | hepatocyte CLint [3] [µL/min/1e6 cells] | half-life [4] [h] | IC50 [5] [nM] | CL (Rattus norvegicus) [mL/min/kg] | CL renal [6] [mL/min/kg] | IC50 [7] [nM] | Fu (Plasma [8]) [%] | Fu (Plasma [9]) [%]
COc1ccc(Cc2cc([C@]34OC[C@](CO)(O3)[C@@H](O)[C@H](O)[C@H]4O)ccc2Cl)cc1 | 3.2 | 9.2 | 2 | 1.6 | 0.882 |  |  |  |  | 
CCOc1ccc(Cc2cc([C@]34OC[C@](CO)(O3)[C@@H](O)[C@H](O)[C@H]4O)ccc2C)cc1 | 3 | 8.9 | 2 |  | 1.11 |  |  | 958 |  | 
COc1ccc(Cc2cc([C@]34OC[C@](CO)(O3)[C@@H](O)[C@H](O)[C@@H]4O)ccc2Cl)cc1 | 3.9 | 15 | 2.3 |  | 43.1 |  |  | > 10000 |  | 
CCOc1ccc(Cc2cc([C@]34OC[C@](CO)(O3)[C@@H](O)[C@H](O)[C@@H]4O)ccc2Cl)cc1 | 3.8 |  |  |  | 89.9 |  |  | > 10000 |  | 

Results, then the compound that gave them:

logD [1] | microsomal CLint [2] [µL/min/mg] | hepatocyte CLint [3] [µL/min/1e6 cells] | half-life [4] [h] | IC50 [5] [nM] | CL (Rattus norvegicus) [mL/min/kg] | CL renal [6] [mL/min/kg] | IC50 [7] [nM] | Fu (Plasma [8]) [%] | Fu (Plasma [9]) [%] | SMILES
3.2 | 32 | < 2 |  |  |  |  |  |  |  | CCc1ccc(Cc2cc([C@@H]3OC4(CNC4)[C@@H](O)[C@H](O)[C@H]3O)ccc2C)cc1
3 | 12 | 44 | 1.9 | 6.98 | 20.5 | 1.8 |  |  |  | COc1ccc(Cc2cc([C@@H]3OC4(COC4)[C@@H](O)[C@H](O)[C@H]3O)ccc2C)cc1
2.4 | < 8 | 3.4 |  |  |  |  |  |  |  | COc1ccc(Cc2cc([C@@H]3O[C@H](CO)[C@@H](O)[C@H](O)[C@H]3O)ccc2C)cc1
3 | < 9 | < 2 |  |  |  |  |  |  |  | COc1ccc(Cc2cc([C@@H]3O[C@H](CO)[C@@H](O)[C@H](O)[C@H]3O)ccc2Cl)cc1
2.6 | < 8 | 2.1 |  | 1.07 |  |  | 506 | 20.6 | 18.6 | COc1ccc(Cc2cc([C@]34OC[C@](CO)(O3)[C@@H](O)[C@H](O)[C@H]4O)ccc2C)cc1
